Assay results as given in ChEMBL document CHEMBL5465560, “Selectivity Literature for EUbOPEN Chemogenomic Library” (2024).
Each block holds one compound with its values, some of them ahead of it.

What was measured:
[1] = target: T1, Tyrosine-protein kinase Mer (Homo sapiens) (UniProt Q12866); experiment: Selectivity interaction (SelectScreen profiling (Invitrogen)) EUB0000607a MERTK; settings: at 2 µM
T1 sequence (whole entry): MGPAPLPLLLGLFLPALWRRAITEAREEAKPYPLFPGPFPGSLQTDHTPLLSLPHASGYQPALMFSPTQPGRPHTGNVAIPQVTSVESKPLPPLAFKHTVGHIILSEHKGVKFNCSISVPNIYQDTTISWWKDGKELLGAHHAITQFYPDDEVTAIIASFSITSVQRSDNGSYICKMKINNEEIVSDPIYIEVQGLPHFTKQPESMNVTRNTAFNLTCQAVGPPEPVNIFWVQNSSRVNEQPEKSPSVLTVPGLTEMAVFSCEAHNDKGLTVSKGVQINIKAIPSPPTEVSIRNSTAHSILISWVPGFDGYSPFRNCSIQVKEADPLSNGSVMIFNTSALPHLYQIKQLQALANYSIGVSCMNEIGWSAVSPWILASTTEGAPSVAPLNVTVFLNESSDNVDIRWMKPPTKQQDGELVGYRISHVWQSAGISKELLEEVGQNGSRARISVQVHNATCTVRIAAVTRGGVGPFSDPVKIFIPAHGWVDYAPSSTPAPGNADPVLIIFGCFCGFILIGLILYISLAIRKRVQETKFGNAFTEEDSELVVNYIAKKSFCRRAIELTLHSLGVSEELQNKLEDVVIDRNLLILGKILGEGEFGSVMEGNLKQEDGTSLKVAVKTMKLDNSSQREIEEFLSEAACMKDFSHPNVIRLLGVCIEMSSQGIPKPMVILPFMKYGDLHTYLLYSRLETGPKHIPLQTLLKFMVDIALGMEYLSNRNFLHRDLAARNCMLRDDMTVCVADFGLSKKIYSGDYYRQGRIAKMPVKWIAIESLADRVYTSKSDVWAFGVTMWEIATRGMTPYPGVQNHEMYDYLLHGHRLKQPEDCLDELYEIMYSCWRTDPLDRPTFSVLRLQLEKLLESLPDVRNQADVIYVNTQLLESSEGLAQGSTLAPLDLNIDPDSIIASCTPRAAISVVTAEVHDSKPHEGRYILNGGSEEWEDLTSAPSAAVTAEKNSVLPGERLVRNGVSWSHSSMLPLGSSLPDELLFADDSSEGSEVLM

[2] = target: T1, Tyrosine-protein kinase Mer (Homo sapiens); experiment: Selectivity interaction (KinomeScan (DiscoverX)) EUB0000607a MERTK; settings: at 10 µM
[3] = target: Tyrosine-protein kinase JAK1 (Homo sapiens, UniProt P23458); experiment: Selectivity interaction (ActivX KiNativ screen (ex vivo kinase selectivity in human PBMCs)) EUB0001619a JAK1; format: cell-based; settings: PBMC, at 1 µM
Chain of Tyrosine-protein kinase JAK1 (P23458 whole entry): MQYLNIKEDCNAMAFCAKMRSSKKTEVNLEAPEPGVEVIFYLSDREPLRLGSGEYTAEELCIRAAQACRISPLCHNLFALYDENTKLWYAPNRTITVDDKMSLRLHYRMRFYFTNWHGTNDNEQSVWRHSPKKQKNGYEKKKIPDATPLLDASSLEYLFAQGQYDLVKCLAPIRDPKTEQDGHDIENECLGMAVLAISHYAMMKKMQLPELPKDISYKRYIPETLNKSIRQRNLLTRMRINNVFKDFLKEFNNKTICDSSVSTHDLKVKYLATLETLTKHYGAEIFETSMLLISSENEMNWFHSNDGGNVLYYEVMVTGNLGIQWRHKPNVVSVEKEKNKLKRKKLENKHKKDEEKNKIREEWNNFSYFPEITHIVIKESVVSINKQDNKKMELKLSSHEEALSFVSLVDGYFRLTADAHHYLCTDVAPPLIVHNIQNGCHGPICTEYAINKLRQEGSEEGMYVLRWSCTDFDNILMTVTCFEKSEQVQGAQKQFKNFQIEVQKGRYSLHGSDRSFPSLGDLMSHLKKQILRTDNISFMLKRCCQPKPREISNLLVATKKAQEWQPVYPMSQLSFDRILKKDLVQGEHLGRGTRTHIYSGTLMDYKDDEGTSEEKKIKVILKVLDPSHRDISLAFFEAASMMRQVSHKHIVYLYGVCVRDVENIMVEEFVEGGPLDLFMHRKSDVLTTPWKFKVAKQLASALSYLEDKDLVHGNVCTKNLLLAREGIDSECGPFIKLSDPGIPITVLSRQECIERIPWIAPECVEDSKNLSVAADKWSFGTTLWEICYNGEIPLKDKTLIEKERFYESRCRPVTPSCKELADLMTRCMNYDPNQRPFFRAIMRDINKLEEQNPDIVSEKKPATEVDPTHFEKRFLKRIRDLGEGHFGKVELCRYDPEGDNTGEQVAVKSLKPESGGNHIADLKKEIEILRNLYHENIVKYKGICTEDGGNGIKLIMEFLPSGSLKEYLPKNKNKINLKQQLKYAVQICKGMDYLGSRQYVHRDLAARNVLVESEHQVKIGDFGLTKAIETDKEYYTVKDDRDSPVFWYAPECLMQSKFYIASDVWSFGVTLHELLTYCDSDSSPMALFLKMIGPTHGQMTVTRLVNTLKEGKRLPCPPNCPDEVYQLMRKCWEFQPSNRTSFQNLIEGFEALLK

[4] = target: Serine/threonine-protein kinase SBK1 (Homo sapiens) (UniProt Q52WX2); experiment: Selectivity interaction (KinomeScan (DiscoverX)) EUB0001619a SBK1; settings: at 1 µM
Chain of Serine/threonine-protein kinase SBK1 (Homo sapiens) (Q52WX2 whole entry): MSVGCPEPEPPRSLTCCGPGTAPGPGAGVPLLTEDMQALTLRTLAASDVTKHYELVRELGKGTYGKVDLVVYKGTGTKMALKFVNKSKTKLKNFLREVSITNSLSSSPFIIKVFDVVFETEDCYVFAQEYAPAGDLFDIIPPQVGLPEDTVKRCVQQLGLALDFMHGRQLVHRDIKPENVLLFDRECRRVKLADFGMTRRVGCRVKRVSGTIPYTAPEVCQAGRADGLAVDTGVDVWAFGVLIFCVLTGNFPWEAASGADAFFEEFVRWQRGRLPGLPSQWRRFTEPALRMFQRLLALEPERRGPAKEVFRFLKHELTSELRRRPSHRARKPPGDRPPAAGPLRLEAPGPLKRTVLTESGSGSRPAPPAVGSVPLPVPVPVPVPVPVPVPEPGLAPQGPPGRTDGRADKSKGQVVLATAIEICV

[5] = target: Phosphatidylinositol 4-kinase type 2-beta (Homo sapiens) (UniProt Q8TCG2); experiment: Selectivity interaction (ActivX KiNativ screen (kinase selectivity in THP-1 cell lysates)) EUB0000639a PI4K2B; format: subcellular; settings: lysate
Chain of Phosphatidylinositol 4-kinase type 2-beta (Homo sapiens) (Q8TCG2 whole entry): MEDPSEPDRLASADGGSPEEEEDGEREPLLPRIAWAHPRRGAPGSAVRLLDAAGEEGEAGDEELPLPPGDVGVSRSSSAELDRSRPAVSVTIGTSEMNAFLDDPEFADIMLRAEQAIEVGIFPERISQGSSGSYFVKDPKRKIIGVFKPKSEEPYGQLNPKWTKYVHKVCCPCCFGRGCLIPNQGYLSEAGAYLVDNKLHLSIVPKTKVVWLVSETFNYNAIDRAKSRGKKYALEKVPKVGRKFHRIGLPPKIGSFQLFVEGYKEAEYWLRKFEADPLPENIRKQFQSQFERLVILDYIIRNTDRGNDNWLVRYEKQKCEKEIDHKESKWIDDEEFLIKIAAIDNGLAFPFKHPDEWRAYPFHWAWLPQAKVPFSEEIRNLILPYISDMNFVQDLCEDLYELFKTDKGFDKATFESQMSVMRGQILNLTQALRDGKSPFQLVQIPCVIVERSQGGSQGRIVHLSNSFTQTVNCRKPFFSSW

[6] = target: T2, Serine/threonine-protein kinase Sgk3 (Homo sapiens) (UniProt Q96BR1); experiment: Selectivity interaction (ActivX KiNativ screen (kinase selectivity in THP-1 cell lysates)) EUB0000639a SGK3; format: subcellular; settings: lysate, at 5 µM
T2 sequence (whole entry): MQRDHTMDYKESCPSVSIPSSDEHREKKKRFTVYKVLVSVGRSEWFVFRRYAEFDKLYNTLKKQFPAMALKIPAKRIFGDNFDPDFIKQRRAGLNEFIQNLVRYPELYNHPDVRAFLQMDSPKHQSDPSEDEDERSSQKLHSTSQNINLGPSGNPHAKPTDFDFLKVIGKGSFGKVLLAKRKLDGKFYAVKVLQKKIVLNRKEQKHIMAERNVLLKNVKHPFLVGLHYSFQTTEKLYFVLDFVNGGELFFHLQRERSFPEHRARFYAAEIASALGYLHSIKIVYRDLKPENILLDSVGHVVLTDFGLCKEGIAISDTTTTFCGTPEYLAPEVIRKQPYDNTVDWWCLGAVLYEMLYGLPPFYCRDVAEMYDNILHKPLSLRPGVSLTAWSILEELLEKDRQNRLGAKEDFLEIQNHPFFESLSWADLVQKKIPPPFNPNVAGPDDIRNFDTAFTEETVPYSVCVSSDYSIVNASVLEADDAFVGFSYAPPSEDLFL

[7] = target: Calcium/calmodulin-dependent protein kinase kinase 2 (Homo sapiens) (UniProt Q96RR4); experiment: Selectivity interaction (ActivX KiNativ screen (kinase selectivity in THP-1 cell lysates)) EUB0000639a CAMKK2; format: subcellular; settings: lysate
Chain of Calcium/calmodulin-dependent protein kinase kinase 2 (Homo sapiens) (Q96RR4 2-588 limits assumed): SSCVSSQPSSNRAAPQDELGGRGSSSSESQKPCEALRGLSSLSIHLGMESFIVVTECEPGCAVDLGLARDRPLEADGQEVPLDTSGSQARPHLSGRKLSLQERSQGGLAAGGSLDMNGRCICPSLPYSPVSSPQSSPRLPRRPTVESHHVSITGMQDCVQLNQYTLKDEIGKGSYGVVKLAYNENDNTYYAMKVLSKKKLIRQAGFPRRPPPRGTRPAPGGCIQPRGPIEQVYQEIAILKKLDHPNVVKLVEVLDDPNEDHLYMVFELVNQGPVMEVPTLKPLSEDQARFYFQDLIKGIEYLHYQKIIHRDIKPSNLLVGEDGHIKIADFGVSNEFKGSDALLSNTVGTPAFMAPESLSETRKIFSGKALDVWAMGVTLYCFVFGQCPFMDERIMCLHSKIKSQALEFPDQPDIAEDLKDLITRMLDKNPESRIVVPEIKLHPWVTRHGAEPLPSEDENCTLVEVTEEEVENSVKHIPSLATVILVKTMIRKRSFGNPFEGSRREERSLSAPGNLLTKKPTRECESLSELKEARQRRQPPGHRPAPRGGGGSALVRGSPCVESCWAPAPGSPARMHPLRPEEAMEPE

[8] = target: T3, Muscle, skeletal receptor tyrosine-protein kinase (Homo sapiens) (UniProt O15146); experiment: Selectivity interaction (Kinase panel (Z-LYTE Assay)) EUB0001632a MUSK; settings: at 10 µM
T3 sequence (whole entry): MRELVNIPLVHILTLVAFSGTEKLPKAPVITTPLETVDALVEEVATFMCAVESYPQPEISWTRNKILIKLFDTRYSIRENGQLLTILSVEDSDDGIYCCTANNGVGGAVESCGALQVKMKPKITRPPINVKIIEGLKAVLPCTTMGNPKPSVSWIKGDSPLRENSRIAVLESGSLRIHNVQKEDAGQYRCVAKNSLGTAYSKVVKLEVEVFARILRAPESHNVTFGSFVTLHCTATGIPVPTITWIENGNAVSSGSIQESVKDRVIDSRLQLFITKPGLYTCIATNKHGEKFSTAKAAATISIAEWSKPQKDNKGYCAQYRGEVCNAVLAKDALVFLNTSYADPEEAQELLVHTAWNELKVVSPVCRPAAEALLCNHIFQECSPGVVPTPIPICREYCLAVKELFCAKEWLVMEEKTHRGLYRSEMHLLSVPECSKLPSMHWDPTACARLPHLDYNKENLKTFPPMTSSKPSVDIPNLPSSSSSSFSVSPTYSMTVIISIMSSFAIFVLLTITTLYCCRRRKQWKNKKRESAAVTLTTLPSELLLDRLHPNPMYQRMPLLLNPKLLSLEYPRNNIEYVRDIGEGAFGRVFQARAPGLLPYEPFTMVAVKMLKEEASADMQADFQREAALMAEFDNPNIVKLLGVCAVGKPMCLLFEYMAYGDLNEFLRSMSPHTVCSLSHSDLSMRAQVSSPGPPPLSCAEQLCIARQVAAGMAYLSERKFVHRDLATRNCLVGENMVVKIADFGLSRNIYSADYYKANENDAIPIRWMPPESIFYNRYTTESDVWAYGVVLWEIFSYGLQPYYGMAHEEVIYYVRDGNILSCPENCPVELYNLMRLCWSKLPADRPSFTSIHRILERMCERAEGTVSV

SMILES: CNC(=O)Nc1ccc(-c2nc(N3CC4CCC(C3)O4)c3cnn(C4CCC5(CC4)OCCO5)c3n2)cc1
% of inhibition [1]: 1% | % of control [2]: 87%

SMILES: N#Cc1cccc(-c2c[nH]c3ncnc(N4CCOCC4)c23)c1
% of inhibition [3]: -1% | % of control [4]: 100%

% of inhibition ([5]; at 0.01 µM): 13.9% | % of inhibition ([5]; at 0.04 µM): -2.8% | % of inhibition ([5]; at 0.2 µM): -47.4% | % of inhibition ([5]; at 1 µM): -23.2% | % of inhibition ([5]; at 5 µM): -24% | % of inhibition [6]: -1.4% | % of inhibition ([7]; at 0.01 µM): 5.1% | % of inhibition ([7]; at 0.04 µM): 9.8% | % of inhibition ([7]; at 0.2 µM): 8.1% | % of inhibition ([7]; at 1 µM): 37.6% | % of inhibition ([7]; at 5 µM): 63.5%
SMILES: CC[C@@H]1[C@H](F)C(=O)N[C@@H]1COc1nccc2cc(C(N)=O)c(OC)cc12 [ZIMLOVISERTIB]

% of control [8]: 12.7%
SMILES: Cn1cc(-n2cnc3c(NCc4nc5cc(Cl)c(Cl)cc5[nH]4)nc(N4CCOCC4)nc32)cn1
